Data on seven molecules can be found in patent US10350271B2, “Lipidated peptides for lowering blood glucose” (USTAV ORGANICKE CHEMIE A BIOCHEMIE AKADEMIE VED CR, V.V.I., priority 2014, dated 2019).

Square brackets hold non-standard residues; d marks the D form. Ends that are not written are not given here. Peptide text beside a SMILES is read from it. * marks the point of attachment. Palmitoyl = CCCCCCCCCCCCCCCC(=O)*; Myristoyl = CCCCCCCCCCCCCC(=O)*; Nle = CCCC[C@H](N)C(=O)O

The target of one assay is T1, rat PrRP receptor (Rattus norvegicus, UniProt Q64121).
T1 construct: host or cells: RC-4B/C rat pituitary cell line
T1 sequence (Q64121 1-370): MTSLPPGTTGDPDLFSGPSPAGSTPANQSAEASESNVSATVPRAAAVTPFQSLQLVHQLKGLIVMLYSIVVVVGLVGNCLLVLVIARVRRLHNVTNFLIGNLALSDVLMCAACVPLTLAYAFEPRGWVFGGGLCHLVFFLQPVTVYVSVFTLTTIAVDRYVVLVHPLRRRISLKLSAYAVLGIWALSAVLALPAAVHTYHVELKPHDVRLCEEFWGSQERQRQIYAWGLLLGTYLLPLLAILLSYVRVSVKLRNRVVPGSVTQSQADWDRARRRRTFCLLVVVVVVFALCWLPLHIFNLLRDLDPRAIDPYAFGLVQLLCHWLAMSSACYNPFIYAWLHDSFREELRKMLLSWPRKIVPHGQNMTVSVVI
The assay can be described thus: Competitive binding in RC-4B/C rat pituitary cells (125I-rat PrRP31). As to conditions: for Binding affinity / Ki: RC-4B/C cells; for Binding affinity: statements referring to Table 2; for % of PrRP31, RC-4B/C rat pituitary cells: affinity relative to PrRP31; for Ki: displacement of 125I-rat PrRP31, read-out: Ki, RC-4B/C rat pituitary cells ^25I-rat PrRP31. Put shortly:
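Displacement of rat 125I-PrRP31 ([…]) by test analogs, 10^−11–10^−4 mol·l^−1, on whole RC-4B/C cells, 60 min RT. Bound counts measured by γ-counter in duplicate, ≥3 repeats, analyzed by nonlinear one-site binding regression.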

In the next assay the test system is C57BL/6 mice. Kind of assay: Food intake in fasted mice after SC injection. In kind it is in vivo. To be noted: for Food intake in mice % of saline-treated group: 5 mg/kg SC, 45 min after injection; for Effect on food intake in mice: SC. How it is done: NMRI mice, C57BL/6 mice, and Wistar rats (AnLab, Prague, Czech Republic) were housed in a temperature of 23° C. and a daily cycle of 12 h light and dark (light from 6:00). They were given ad libitum water and a standard chow diet that contained 25, 9 and 66% of calories of protein, fat and carbohydrate respectively. Energy content of the feed was 3.4 kcal/g (St-1, Mlýn Kocanda, Czech Republic). Db/db mice and their controls (C57BL/6 background) were obtained from Taconic (Denmark), housed under the same conditions as described above, and fed by Altromin (Taconic, Denmark). ZDF-Lepr^fa/Crl, diabetic fa/fa male rats were obtained from Charles River (France), housed under same conditions as described above, and fed with a Purina 5008 diet (IPS Product Supplies Limited, UK). All experiments followed the ethical guidelines for animal experiments and the law of the Czech Republic Nr. 246/1992.
In experiments with C57BL/6 mice or Wistar rats, food intake was measured with overnight fasted animals in individual cages. Food was withdrawn 17 hours prior to injection of lipidated analog of prolactin releasing peptide (PrRP); free access to water was maintained. The administration of either saline, PrRP, or lipidated analogs was performed by SC injection at doses of 1-10 mg/kg (which corresponded to a volume of 0.2 ml/mouse and 0.1 ml/100 g weight of rat). Fifteen minutes after the lipidated analog of prolactin releasing peptide (PrRP) administration, the mice were given pre-weighed food. The food was then weighed every 30 minutes for 5-10 hours. The administration of each dose was performed at least twice, and each group of mice consisted of at least 6 mice.

Turning to `CCCCCCCCCCCCCC(=O)N[C@H](Cc1ccccc1)C(=O)N[C@H](CCCNC(=N)N)C(=O)NCC(=O)N[C@H](C(=O)N1CCC[C@H]1C(=O)N[C@@H](CCCNC(=N)N)C(=O)N[C@H](C(=O)NCC(=O)N[C@@H](CCCNC(=N)N)C(=O)NCC(=O)N[C@H](C(=O)N[C@@H](Cc1ccc(O)cc1)C(=O)N[C@@H](Cc1c[nH]c2ccccc12)C(=O)N[C@@H](C)C(=O)N1CCC[C@H]1C(=O)N[C@@H](CC(N)=O)C(=O)N[C@H](C(=O)N[C@@H](CC(=O)O)C(=O)N1CCC[C@H]1C(=O)N[C@H](C(N)=O)[C@@H](C)O)[C@@H](C)CC)[C@@H](C)O)[C@@H](C)CC)C(C)C` [Analog 26] (Myristoyl-[dF][dR]GVPRIGRGTYWAPNIDPT-NH2), on rat PrRP receptor, the “Binding affinity” value is recorded as “very low binding affinity” and the “% of PrRP31, RC-4B/C rat pituitary cells” value was found to be 1.4%. For the same molecule, in the assay on C57BL/6 mice, the “Food intake in mice % of saline-treated group” value (“Food intake in mice %” for short) worked out at 100% and the “Effect on food intake in mice” value is recorded as “no effect”.

On to `CCCCCCCCCCCCCCCC(=O)N[C@@H](CO)C(=O)N[C@@H](CCCNC(=N)N)C(=O)N[C@@H](C)C(=O)N[C@@H](Cc1c[nH]cn1)C(=O)N[C@@H](CCC(N)=O)C(=O)N[C@@H](Cc1c[nH]cn1)C(=O)N[C@@H](CO)C(=O)N[C@@H](CCSC)C(=O)N[C@@H](CCC(=O)O)C(=O)N[C@H](C(=O)N[C@@H](CCCNC(=N)N)C(=O)N[C@H](C(=O)N1CCC[C@H]1C(=O)N[C@@H](CC(=O)O)C(=O)N[C@H](C(=O)N[C@@H](CC(N)=O)C(=O)N1CCC[C@H]1C(=O)N[C@@H](C)C(=O)N[C@@H](Cc1c[nH]c2ccccc12)C(=O)N[C@@H](Cc1ccc(O)cc1)C(=O)N[C@H](C(=O)NCC(=O)N[C@@H](CCCNC(=N)N)C(=O)NCC(=O)N[C@H](C(=O)N[C@@H](CCCNC(=N)N)C(=O)N1CCC[C@H]1C(=O)N[C@H](C(=O)NCC(=O)N[C@@H](CCCNC(=N)N)C(=O)N[C@@H](Cc1ccccc1)C(N)=O)C(C)C)[C@@H](C)CC)[C@@H](C)O)[C@@H](C)CC)[C@@H](C)O)[C@@H](C)O` [Analog 47] (Palmitoyl-SRAHQHSMETRTPDINPAWYTGRGIRPVGRF-NH2), for which the “% of PrRP31, RC-4B/C rat pituitary cells” value on rat PrRP receptor was determined as 1202%. The “Food intake in mice %” value with C57BL/6 mice worked out at 2%.

For the molecule “TPDINPAWYASRGIRPVGRF-NH2 [Human PrRP20, reference compound]”, on rat PrRP receptor, the Ki turned out to be 1.78 ± 0.46 nM and the “% of PrRP31, RC-4B/C rat pituitary cells” value is listed as 277%. For the same molecule, in the assay on C57BL/6 mice, the “Food intake in mice %” value is given as 100%.

As to `CC[C@H](C)[C@H](NC(=O)CNC(=O)[C@H](CCCNC(=N)N)NC(=O)[C@H](CO)NC(=O)[C@H](C)NC(=O)[C@H](Cc1ccc(O)cc1)NC(=O)[C@H](Cc1c[nH]c2ccccc12)NC(=O)[C@H](C)NC(=O)[C@@H]1CCCN1C(=O)[C@H](CC(N)=O)NC(=O)[C@@H](NC(=O)[C@H](CC(=O)O)NC(=O)[C@@H]1CCCN1C(=O)[C@@H](NC(=O)[C@H](CCCNC(=N)N)NC(=O)[C@@H](NC(=O)[C@H](CCC(=O)O)NC(=O)[C@H](CCSC)NC(=O)[C@H](CO)NC(=O)[C@H](Cc1c[nH]cn1)NC(=O)[C@H](CCCNC(=N)N)NC(=O)[C@H](Cc1c[nH]cn1)NC(=O)[C@@H](NC(=O)[C@H](CCCNC(=N)N)NC(=O)[C@@H](N)CO)[C@@H](C)O)[C@@H](C)CC)[C@@H](C)O)[C@@H](C)CC)C(=O)N[C@@H](CCCNC(=N)N)C(=O)N1CCC[C@H]1C(=O)N[C@H](C(=O)NCC(=O)N[C@@H](CCCNC(=N)N)C(=O)N[C@@H](Cc1ccccc1)C(N)=O)C(C)C` [Human PrRP31, reference compound], on rat PrRP receptor, the Ki was found to be 2.38 ± 0.19 nM and the “% of PrRP31, RC-4B/C rat pituitary cells” value stood at 207%. Besides, the “Food intake in mice %” value with C57BL/6 mice was determined as 100%.

With `CCCCCCCCCCCCCC(=O)N[C@@H](CO)C(=O)N[C@@H](Cc1c[nH]cn1)C(=O)N[C@@H](CCC(N)=O)C(=O)N[C@@H](CCCNC(=N)N)C(=O)N1CCC[C@H]1C(=O)N[C@@H](C)C(=O)N[C@@H](CC(=O)O)C(=O)N[C@H](C(=O)N[C@@H](Cc1c[nH]cn1)C(=O)N[C@@H](Cc1c[nH]c2ccccc12)C(=O)N[C@@H](Cc1ccc(O)cc1)C(=O)N1CCC[C@H]1C(=O)N[C@@H](CCCNC(=N)N)C(=O)NCC(=O)N[C@@H](CCCC)C(=O)N[C@@H](Cc1ccccc1)C(=O)N1CCC[C@H]1C(=O)N[C@H](C(=O)N[C@H](C(=O)NCC(=O)N[C@@H](CCCNC(=N)N)C(=O)N[C@H](C(=O)N[C@H](C(=O)N[C@@H](C)C(=O)N[C@@H](CCCNC(=N)N)C(=O)N[C@@H](CC(N)=O)C(=O)NCC(=O)N[C@@H](CCC(=O)O)C(=O)N[C@H](C(=O)N[C@@H](CO)C(=O)N[C@@H](CCCNC(=N)N)C(N)=O)C(C)C)[C@@H](C)O)[C@@H](C)CC)[C@@H](C)CC)[C@@H](C)O)[C@@H](C)O` [Analog 20] (Myristoyl-SHQRPADTHWYPRG[Nle]FPTIGRITARNGEVSR-NH2), the “Binding affinity” value at rat PrRP receptor is reported as “very low binding affinity”. Further, in the assay on C57BL/6 mice, the “Effect on food intake in mice” value was “no effect”.

Take `CCCCCCCCCCCCCC(=O)N[C@@H](CO)C(=O)N[C@@H](CCCNC(=N)N)C(=O)N[C@@H](C)C(=O)N[C@@H](Cc1c[nH]cn1)C(=O)N[C@@H](CCC(N)=O)C(=O)N[C@@H](Cc1c[nH]cn1)C(=O)N[C@@H](CO)C(=O)N[C@@H](CCSC)C(=O)N[C@@H](CCC(=O)O)C(=O)N[C@H](C(=O)N[C@@H](CCCNC(=N)N)C(=O)N[C@H](C(=O)N1CCC[C@H]1C(=O)N[C@@H](CC(=O)O)C(=O)N[C@H](C(=O)N[C@@H](CC(N)=O)C(=O)N1CCC[C@H]1C(=O)N[C@@H](C)C(=O)N[C@@H](Cc1c[nH]c2ccccc12)C(=O)N[C@@H](Cc1ccc(O)cc1)C(=O)N[C@H](C(=O)NCC(=O)N[C@@H](CCCNC(=N)N)C(=O)NCC(=O)N[C@H](C(=O)N[C@@H](CCCNC(=N)N)C(=O)N1CCC[C@H]1C(=O)N[C@H](C(=O)NCC(=O)N[C@@H](CCCNC(=N)N)C(=O)N[C@@H](Cc1ccccc1)C(N)=O)C(C)C)[C@@H](C)CC)[C@@H](C)O)[C@@H](C)CC)[C@@H](C)O)[C@@H](C)O` [Analog 46] (Myristoyl-SRAHQHSMETRTPDINPAWYTGRGIRPVGRF-NH2): the “% of PrRP31, RC-4B/C rat pituitary cells” value at rat PrRP receptor was 657%. Further, the “Food intake in mice %” value in the assay on C57BL/6 mice is reported as 20%.

`CCCC[C@H](NC(=O)CNC(=O)[C@H](CCCNC(=N)N)NC(=O)[C@@H]1CCCN1C(=O)[C@H](Cc1ccc(O)cc1)NC(=O)[C@H](Cc1c[nH]c2ccccc12)NC(=O)[C@H](Cc1c[nH]cn1)NC(=O)[C@@H](NC(=O)[C@H](CC(=O)O)NC(=O)[C@H](C)NC(=O)[C@@H]1CCCN1C(=O)[C@H](CCCNC(=N)N)NC(=O)[C@H](CCC(N)=O)NC(=O)[C@H](Cc1c[nH]cn1)NC(=O)[C@@H](N)CO)[C@@H](C)O)C(=O)N[C@@H](Cc1ccccc1)C(=O)N1CCC[C@H]1C(=O)N[C@H](C(=O)N[C@H](C(=O)NCC(=O)N[C@@H](CCCNC(=N)N)C(=O)N[C@H](C(=O)N[C@H](C(=O)N[C@@H](C)C(=O)N[C@@H](CCCNC(=N)N)C(=O)N[C@@H](CC(N)=O)C(=O)NCC(=O)N[C@@H](CCC(=O)O)C(=O)N[C@H](C(=O)N[C@@H](CO)C(=O)N[C@@H](CCCNC(=N)N)C(N)=O)C(C)C)[C@@H](C)O)[C@@H](C)CC)[C@@H](C)CC)[C@@H](C)O` [Analog 19] (H-SHQRPADTHWYPRG[Nle]FPTIGRITARNGEVSR-NH2): the “Binding affinity” value at rat PrRP receptor was “very low binding affinity”. Moreover, in the assay on C57BL/6 mice, the “Effect on food intake in mice” value was “no effect”.
